Columns and labels:
Gallus gallus [1] = test: Antiemetic activity against copper sulphate-induced emesis in young chicks assessed as decrease in retching at 50 mg/kg, ip measured for 10 mins; format: functional; settings: route intraperitoneal
Gallus gallus [2] = test: Antiemetic activity against copper sulfate-induced emesis in young chicks assessed as decrease in retching at 20 mg/kg, ip measured for 10 mins; format: functional; settings: route intraperitoneal

Compound | inhibition in vivo at 50 mg/kg (Gallus gallus [1]) | inhibition in vivo at 20 mg/kg (Gallus gallus [2])
COc1cc(CCC(=O)C[C@H](O)CCc2ccc(O)cc2)ccc1O | 12.4% | –
COc1cc(CCC(O)CC(O)CCc2ccccc2)ccc1O (stereo not drawn) | 45.7% | –
Oc1ccc(CC[C@@H](O)C[C@H](O)CCc2ccccc2)cc1 | 37.7% | –
COc1cc(CC[C@@H](O)CC(=O)CCc2ccc(O)cc2)ccc1O | 38.3% | –
COc1ccc(-c2oc3cc(O)cc(O)c3c(=O)c2O)cc1 [KAEMPFERIDE] | – | 63.3%
CCCCCCCCCCCCCCCC(=O)OC[C@H]1O[C@@H](O[C@H]2CC[C@@]3(C)C(=CC[C@H]4[C@@H]5CC[C@H]([C@H](C)CC[C@H](CC)C(C)C)[C@@]5(C)CC[C@@H]43)C2)[C@H](O)[C@@H](O)[C@@H]1O | 50.9% | –
O=c1c(O)c(-c2ccccc2)oc2cc(O)cc(O)c12 [GALANGIN] | – | 25.4%
O=C(CCc1ccccc1)CC(O)CCc1ccc(O)cc1 (stereo not drawn) | – | 71%

— ChEMBL document CHEMBL1150636, “Antiemetic principles of Alpinia officinarum” (2002)
